Results as given in DBAASP.
In brackets after ≈: the same amount, converted by molar mass.

Legend:
Assay in all cases: ≥ marks a high value that may be exact or a test limit, other limits are often not marked, values filed in µg/mL are converted to µM
Bacillus subtilis 168 = system: Bacillus subtilis 168
Staphylococcus aureus = system: Staphylococcus aureus
[1] = system: Micrococcus luteus CCM 144
Pseudomonas aeruginosa = system: Pseudomonas aeruginosa
Escherichia coli B = system: Escherichia coli B
[2] = system: Candida albicans F7-39/IDE99
[3] = system: Proteus mirabilis ATCC 25933
[4] = system: Enterobacter cloacae HNTCC 53001
[5] = system: Candida albicans ATCC 90028
[6] = system: Staphylococcus epidermidis RP62A
[7] = system: Klebsiella pneumoniae KK3 9904
[8] = system: Pseudomonas aeruginosa ATCC 27853
[9] = system: Escherichia coli ATCC 25922
[10] = system: Enterococcus faecalis ATCC 29212
[11] = system: Staphylococcus aureus NCTC 8325
[12] = system: Lacticaseibacillus rhamnosus 7469
[13] = system: Salmonella enterica subsp. enterica serovar Pullorum ATCC 7913
Escherichia coli 078 = system: Escherichia coli 078
[14] = system: Staphylococcus aureus ATCC 29213
[15] = system: Salmonella enterica subsp. enterica serovar Typhimurium C77-31
[16] = system: Streptococcus agalactiae CICC 10465
Streptococcus agalactiae = system: Streptococcus agalactiae
[17] = system: Staphylococcus aureus ATCC 25923
Escherichia coli UB1005 = system: Escherichia coli UB1005
[18] = system: Streptococcus thermophilus YM-C
[19] = system: Salmonella enterica subsp. enterica serovar Typhimurium ATCC 14028
[20] = system: Staphylococcus epidermidis ATCC 12228
Escherichia coli DC2 = system: Escherichia coli DC2
[21] = system: Corynebacterium xerosis C875
[22] = system: Staphylococcus epidermidis C621

| Compound | MIC [8] [µM] | MIC [9] [µM] | MIC [12] [µM] | MIC [13] [µM] | MIC (Escherichia coli 078) [µM] | MIC [14] [µM] | MIC [15] [µM] | MIC [16] [µM] | MIC (Streptococcus agalactiae) [µM] | MIC [17] [µM] | MIC (Escherichia coli UB1005) [µM] | MIC [18] [µM] | MIC [19] [µM] | MIC [20] [µM] | other results |
| --- | --- | --- | --- | --- | --- | --- | --- | --- | --- | --- | --- | --- | --- | --- | --- |
| CC[C@H](C)[C@H](NC(=O)[C@H](CCCCN)NC(=O)CNC(=O)[C@H](Cc1c[nH]c2ccccc12)NC(=O)[C@H](CC(N)=O)NC(=O)[C@@H](N)CC(C)C)C(=O)N[C@@H](CC(C)C)C(=O)N[C@@H](CCCCN)C(=O)N[C@@H](Cc1cnc[nH]1)C(=O)N[C@H](C(=O)N[C@H](C(=O)N[C@@H](CCCCN)C(N)=O)[C@@H](C)CC)[C@@H](C)CC [LNWGKILKHIIK] |  |  |  |  |  |  |  |  |  |  |  |  |  |  | MIC (Bacillus subtilis 168): 1.7 µM (≈ 2.49 µg/mL); MIC (Staphylococcus aureus): 8.7 µM (≈ 12.7 µg/mL); MIC [1]: 2.2 µM (≈ 3.22 µg/mL); MIC (Pseudomonas aeruginosa): 20.8 µM (≈ 30.4 µg/mL); MIC (Escherichia coli B): 4 µM (≈ 5.85 µg/mL); MIC [2]: 7.3 µM (≈ 10.7 µg/mL) |
| CC[C@H](C)[C@H](NC(=O)[C@H](CC(C)C)NC(=O)[C@H](CCCCN)NC(=O)[C@@H](NC(=O)[C@@H](NC(=O)[C@H](Cc1cnc[nH]1)NC(=O)[C@@H]1CCCN1C(=O)[C@H](CC(C)C)NC(=O)[C@@H](NC(=O)[C@H](CCCCN)NC(=O)[C@H](C)NC(=O)[C@H](CC(C)C)NC(=O)[C@H](CC(C)C)NC(=O)[C@H](CCCCN)NC(=O)[C@H](C)NC(=O)[C@H](CCSC)NC(=O)CN)C(C)C)C(C)C)C(C)C)C(=O)N[C@@H](CCCCN)C(=O)O [GMAKLLAKVLPHVVKLIK] |  |  |  |  |  |  |  |  |  |  |  |  |  |  | MIC (Bacillus subtilis 168): 1.3 µM (≈ 2.55 µg/mL); MIC (Staphylococcus aureus): 2.7 µM (≈ 5.29 µg/mL); MIC [1]: 0.8 µM (≈ 1.57 µg/mL); MIC (Pseudomonas aeruginosa): 17.5 µM (≈ 34.3 µg/mL); MIC (Escherichia coli B): 1.5 µM (≈ 2.94 µg/mL); MIC [2]: 13.1 µM (≈ 25.7 µg/mL) |
| CC[C@H](C)[C@H](NC(=O)CNC(=O)[C@H](CCC(N)=O)NC(=O)[C@H](Cc1ccccc1)NC(=O)[C@@H](NC(=O)[C@H](CCCCN)NC(=O)[C@H](CCCCN)NC(=O)[C@H](CC(C)C)NC(=O)[C@H](C)NC(=O)[C@H](CCCCN)NC(=O)[C@H](CC(C)C)NC(=O)CN)C(C)C)C(=O)N[C@@H](Cc1cnc[nH]1)C(=O)N[C@@H](CCCCN)C(=O)N[C@@H](C)C(=O)N[C@H](C(=O)N[C@@H](CCCCN)C(=O)N[C@@H](CC(C)C)C(=O)N[C@H](C(=O)N[C@@H](CC(N)=O)C(=O)N[C@@H](CC(N)=O)C(=O)N[C@@H](Cc1cnc[nH]1)C(=O)N[C@H](C(=O)N[C@@H](CCC(N)=O)C(=O)O)C(C)C)[C@@H](C)CC)[C@@H](C)CC [GLKALKKVFQGIHKAIKLINNHVQ] | 10 (≈ 27 µg/mL) | 5 (≈ 13.5 µg/mL) |  |  |  |  |  |  |  |  |  |  |  |  | MIC [3]: ≥ 80 µM; MIC [4]: 10 µM (≈ 27 µg/mL); MIC [5]: ≥ 80 µM; MIC [6]: 20 µM (≈ 54 µg/mL); MIC [7]: 5 µM (≈ 13.5 µg/mL); MIC [10]: > 80 µM; MIC [11]: ≥ 40 µM |
| CC[C@H](C)[C@H](NC(=O)[C@H](CC(C)C)NC(=O)[C@@H](NC(=O)[C@@H](N)CC(=O)O)[C@@H](C)CC)C(=O)N[C@H](C(=O)N[C@H](C(=O)NCC(=O)NCC(=O)N[C@@H](CCCN=C(N)N)C(=O)N[C@@H](CCCN=C(N)N)C(=O)N[C@@H](CCCN=C(N)N)C(=O)N[C@@H](CCCN=C(N)N)C(=O)N[C@@H](CCCN=C(N)N)C(=O)N[C@@H](CCCN=C(N)N)C(=O)N[C@@H](CCCN=C(N)N)C(=O)N[C@@H](CCCN=C(N)N)C(N)=O)C(C)C)[C@@H](C)CC [DILIIVGGRRRRRRRR] | 8 (≈ 16.4 µg/mL) | 4 (≈ 8.19 µg/mL) | ≥ 64 | 8 (≈ 16.4 µg/mL) | ≥ 32 | 2 (≈ 4.1 µg/mL) | ≥ 64 | 4 (≈ 8.19 µg/mL) | 5.66 (≈ 11.6 µg/mL) | 4 (≈ 8.19 µg/mL) | 8 (≈ 16.4 µg/mL) | ≥ 64 | > 64 | 8 (≈ 16.4 µg/mL) |  |
| CC[C@H](C)[C@H](NC(=O)[C@H](CC(C)C)NC(=O)[C@@H](NC(=O)[C@@H](N)CC(=O)O)[C@@H](C)CC)C(=O)N[C@H](C(=O)N[C@H](C(=O)NCC(=O)NCC(=O)N[C@@H](CCCCN)C(=O)N[C@@H](CCCN=C(N)N)C(=O)N[C@@H](CCCN=C(N)N)C(=O)N[C@@H](CCCN=C(N)N)C(N)=O)C(C)C)[C@@H](C)CC [DILIIVGGKRRR] | > 64 | > 64 | ≥ 64 | ≥ 64 | ≥ 64 | > 64 | ≥ 64 | 8 (≈ 11.2 µg/mL) | 5.66 (≈ 7.89 µg/mL) | > 64 | ≥ 64 | ≥ 64 | > 64 | > 64 |  |
| CC[C@H](C)[C@H](NC(=O)[C@H](CC(C)C)NC(=O)[C@@H](NC(=O)[C@@H](N)CC(=O)O)[C@@H](C)CC)C(=O)N[C@H](C(=O)N[C@H](C(=O)NCC(=O)NCC(=O)N[C@@H](CCCCN)C(=O)N[C@@H](CC(=O)O)C(=O)N[C@@H](CCCN=C(N)N)C(=O)N[C@@H](CCCCN)C(=O)N[C@@H](CCCCN)C(=O)N[C@@H](CCCN=C(N)N)C(=O)N[C@@H](CCCN=C(N)N)C(=O)N[C@@H](CCCN=C(N)N)C(N)=O)C(C)C)[C@@H](C)CC [DILIIVGGKDRKKRRR] | > 64 | 8 (≈ 15.4 µg/mL) | ≥ 64 | 8 (≈ 15.4 µg/mL) | ≥ 32 | 4 (≈ 7.69 µg/mL) | ≥ 64 | 4 (≈ 7.69 µg/mL) | 8 (≈ 15.4 µg/mL) | > 64 | ≥ 32 | ≥ 64 | > 64 | 4 (≈ 7.69 µg/mL) |  |
| CC[C@H](C)[C@H](NC(=O)[C@H](CC(=O)O)NC(=O)[C@@H](NC(=O)[C@@H](NC(=O)CN)C(C)C)C(C)C)C(=O)N[C@@H](CC(C)C)C(=O)N[C@@H](CCCCN)C(=O)NCC(=O)N[C@@H](C)C(=O)N[C@@H](C)C(=O)N[C@@H](CCCCN)C(=O)N[C@@H](CC(=O)O)C(=O)N[C@@H](CC(C)C)C(=O)N[C@@H](C)C(=O)NCC(=O)N[C@@H](Cc1c[nH]cn1)C(=O)N[C@@H](CC(C)C)C(=O)N[C@@H](C)C(=O)N[C@H](C(=O)N[C@@H](CCCCN)C(=O)N[C@H](C(=O)N[C@@H](CCSC)C(=O)N[C@@H](CC(N)=O)C(=O)N[C@@H](CCCCN)C(=O)N[C@@H](CC(C)C)C(N)=O)C(C)C)[C@@H](C)O [GVVDILKGAAKDLAGHLATKVMNKL] | 100 (≈ 256 µg/mL) | 50 (≈ 128 µg/mL) |  |  |  |  |  |  |  |  |  |  |  |  | MIC [3]: ≥ 200 µM; MIC [4]: ≥ 50 µM; MIC [5]: ≥ 200 µM; MIC [6]: ≥ 200 µM; MIC [7]: ≥ 100 µM; MIC [10]: > 200 µM; MIC [11]: ≥ 200 µM |
| CC[C@H](C)[C@H](NC(=O)[C@H](C)NC(=O)[C@H](C)NC(=O)[C@H](C)NC(=O)[C@H](CCCCN)NC(=O)[C@@H](N)CCCCN)C(=O)N[C@@H](C)C(=O)N[C@@H](C)C(=O)N[C@@H](C)C(=O)N[C@@H](C)C(=O)N[C@@H](C)C(=O)N[C@H](C(=O)N[C@@H](C)C(=O)N[C@@H](C)C(=O)N[C@@H](Cc1c[nH]c2ccccc12)C(=O)N[C@@H](C)C(=O)N[C@@H](C)C(=O)N[C@H](C(=O)N[C@@H](C)C(=O)N[C@@H](C)C(=O)N[C@@H](C)C(=O)N[C@@H](CCCCN)C(=O)N[C@@H](CCCCN)C(=O)N[C@@H](CCCCN)C(=O)N[C@@H](CCCCN)C(N)=O)[C@@H](C)CC)[C@@H](C)CC [KKAAAIAAAAAIAAWAAIAAAKKKK] |  |  |  |  |  |  |  |  |  |  | ≥ 32 |  |  |  | MIC (Escherichia coli DC2): 16 µM (≈ 38 µg/mL); MIC [21]: 0.25 µM (≈ 0.594 µg/mL); MIC [22]: 4 µM (≈ 9.51 µg/mL) |
| NCCCC[C@H](NC(=O)[C@H](CCCCN)NC(=O)[C@H](CCCN=C(N)N)NC(=O)[C@H](CCC(=O)O)NC(=O)[C@@H](N)CCCCN)C(=O)N[C@@H](CCCN=C(N)N)C(=O)N[C@@H](CCCN=C(N)N)C(=O)N[C@@H](CCCN=C(N)N)C(N)=O [KERKKRRR] | > 64 | > 64 | ≥ 64 | ≥ 64 | ≥ 64 | > 64 | ≥ 64 | ≥ 64 | ≥ 64 | > 64 | ≥ 64 | ≥ 64 | > 64 | > 64 |  |
